These results are taken from article PMC4153969, “A Novel Suspension Formulation Enhances Intestinal Absorption of Macromolecules Via Transient and Reversible Transport Mechanisms” (Pharmaceutical Research, 2014).

Series [1] relates to Cynomolgus monkeys. Put plainly: 9-month chronic toxicity study, daily oral enteric-coated capsules. Format: in vivo, Cynomolgus monkeys (Macaca fasicularis). The following applies: compared to the negative control group (olive oil). On the procedure:
During the dosing period, animals were fasted for 8 to 10 h prior to dosing, and the first feeding was given 2 h after dosing. Monkeys were observed twice daily for mortality, morbidity, and clinical signs of adverse health effects and qualitative food consumption. Weekly examinations were performed on each animal before drug administration and before terminal sacrifice. Pre-dose body weights were recorded (week −1) and weekly thereafter. Blood samples (~5 ml) were collected for hematology and serum chemistry from the femoral vein before drug administration and from surviving animals prior to the terminal necropsy.
A complete ophthalmic examination was performed on each monkey by a Diplomat of the American College of Veterinary Ophthalmologist veterinarian before animal selection/group assignment (pretest) and again, prior to study termination.
Electrocardiograms (ECGs) were obtained twice pre-study and were analyzed by a veterinary cardiologist for the presence of significant abnormalities. ECGs were also obtained following the 1st dose and at the 3, 6, and 9 months of dosing. Standard ECGs (10 Lead) were recorded at 50 mm/s. Using Lead II (or another appropriate lead), the RR, PR, and QT intervals, and QRS duration were measured and heart rate was determined. The QT interval was calculated using Bazett’s Rule. […]

Series [2] can be described thus: in vivo. The following applies: cynomolgus monkey, plasma, sc, 0.1 mg, plasma octreotide, SC injection 0.1 mg daily. On the procedure: Enteric-coated capsules containing octreotide (20 mg)/OS or olive oil were administrated daily per os to fasted monkeys for 9 months, and swallowed with 10 mL water. In addition, a 1 mL ampule containing octreotide acetate at a concentration of 0.1 mg/mL (Sandostatin®, Novartis Pharmaceuticals, East Hanover, NJ) was administered by daily subcutaneous (SC) injection to another monkeys group. Oral administration of OS in rodent studies was limited due to the lack of properly enteric coated mini-gelatin capsules. Thus, the OS, containing fluorescent marker molecules (see below) or octreotide was enterally injected via implanted cannulas.
On Day 1 and after 3, 6 and 9 months, whole-blood samples (3.0 mL) were collected at routine intervals after completion of oral octreotide dosing. Plasma octreotide levels were determined by a validated liquid chromatographic spectrometric method (PPD Laboratories, Richmond, VA) as described elsewhere ([18]). The maximum plasma concentration (Cmax) and time to Cmax (Tmax) were derived from the data. The area under the curve (AUC) from zero to the last sample with a concentration ≥LOQ [AUC(0-t)] was calculated using the linear trapezoidal method. Analysis of plasma octreotide concentration vs. time was performed using SAS® for Windows® Version 9.3. The primary pharmacokinetic end point variables (Cmax and AUC0-t) were compared using analysis of variance (ANOVA) with treatment time (1, 180, 270-d) as a within-subject (repeated measures)-factor and sex as a between-subject factor.

Series [3] can be described thus: in vivo. On the procedure:
Octreotide acetate in saline was also injected subcutaneously to this animal model.
The octreotide immunoassay is based on a single-step, extraction-free, simultaneous assay procedure (Peninsula Laboratories, Division of Bachem, San Carlos, CA) designed to quantify octreotide concentrations. Briefly, octreotide standards (0.05–6.25 ng/mL) and rat plasma samples were diluted 1:10 with PBS, followed by addition of octreotide anti-rabbit antiserum antibody, biotinylated octreotide tracer, and assay buffer. Samples were washed and incubated with streptavidin–HRP. Optical density was read at a dual absorbance of 450 nm and 630 nm using an Enzyme-Linked Immunoassay (ELISA) reader (Multiskan EX Labsystems; Thermo Electron Corporation, Milford, MA) after addition of TMB solution and acidic stopping solution.
Results were expressed as mean ± SE. The area under plasma concentration–time profile measured from time zero to the last measurable plasma concentration was calculated according to the linear trapezoidal rule. Relative enteral bioavailability (rBA) following intra-jejunal administration of the OS formulation to rats was calculated compared with SC injection as follows: rBA%=AUCjejunum/AUCSC×DoseSC/Dosejejunum×100

Take `C[C@@H](O)[C@@H]1NC(=O)[C@H](CCCCN)NC(=O)[C@@H](Cc2c[nH]c3ccccc23)NC(=O)[C@H](Cc2ccccc2)NC(=O)[C@@H](NC(=O)[C@H](N)Cc2ccccc2)CSSC[C@@H](C(=O)N[C@H](CO)[C@@H](C)O)NC1=O` [octreotide acetate]: the “clinical observation: hair and skin” value in series [1] (both sexes) was “increased incidence of sparse hair and red discoloured skin”. Also, the “clinical observation: feces” value in series [1] is given as “higher incidence of watery feces”. For the same molecule, the AUC(0-t) (in general, exposure summed from dosing to a finite time, without extrapolation to infinity) in series [2] (female, Day 1, female monkeys) is 64.3 ± 5.3 ng·h/mL; in series [2] (female, Day 180, female monkeys) it was 60.8 ± 6.9 ng·h/mL; in series [2] (female, Day 270, female monkeys) it was 49.6 ± 3 ng·h/mL; in series [2] (male, Day 1, male monkeys) it was 41.7 ± 8.6 ng·h/mL; in series [2] (male, Day 180, male monkeys), 46.2 ± 5.4 ng·h/mL; in series [2] (male, Day 270, male monkeys) it was 51.3 ± 11.3 ng·h/mL. This molecule had an AUC(0-t) in series [3] (Sprague-Dawley, rat, plasma, sc, 0.172 mg/kg) of 205 ng·h/mL. The “change in rat plasma peptide concentrations” value in series [3] (enteral dosing in saline solution without OS, data not shown) was “negligible changes”.
